Experiments:
[1] = biological target: T1, Protein farnesyltransferase (Homo sapiens, UniProt P49354+P49356); test: Inhibitory activity against human farnesyltransferase; type: protein-complex assay
[2] = biological target: T1, Protein farnesyltransferase; test: Inhibitory activity in COS cell Ha-Ras processing assay; type: functional, cell-based, Chlorocebus aethiops

Row | IC50 [2] | Compound | IC50 [1]
1 |  | O=C(NCc1cccnc1)C1CN(C2c3ccc(Cl)cc3CCc3cc(Br)cnc32)CCN1C(=O)CCc1ccccc1 (stereo not drawn) | 30 nM
2 |  | O=C(CC1CN(C2c3ccc(Cl)cc3CCc3cc(Br)cnc32)CCN1C(=O)Cc1ccncc1)NC1CC1 (stereo not drawn) | 70 nM
3 |  | CNC(=O)C1CN(C2c3ccc(Cl)cc3CCc3cc(Br)cnc32)CCN1C(=O)Cc1ccc(Cl)cc1 (stereo not drawn) | 100 nM
4 | 2000 nM | O=C(NCc1cccnc1)C1CCCN(C2c3ccc(Cl)cc3CCc3cc(Br)cnc32)C1 (stereo not drawn) | 120 nM
5 |  | O=C(NCC1CC1)C1CN(C2c3ccc(Cl)cc3CCc3cc(Br)cnc32)CCN1C(=O)Cc1ccncc1 (stereo not drawn) | 50 nM
6 | 2000 nM | O=C(CC1CN(C2c3ccc(Cl)cc3CCc3cc(Br)cnc32)CCN1C(=O)CCc1ccccc1)NCc1cccnc1 (stereo not drawn) | 960 nM

— ChEMBL document CHEMBL1141236, “Surfing the piperazine core of tricyclic farnesyltransferase inhibitors” (Bioorg Med Chem Lett, 2005)
